From patent US20240215582A1, “METHODS OF CONTROLLING PLANT PATHOGENS” (Valent BioSciences LLC, priority 2022, published 2024)
Read-outs that look alike come from different tables or passages of the source.

Tests used:
[1] = tested on: Zymoseptoria tritici; experiment: In vitro growth on cervinomycin-amended growth media; assay type: cell-based
[2] = tested on: Plasmospora viticola; experiment: Efficacy on grape plants infected with Plasmospora viticola; details: for % control Plasmospora viticola 1DAI: 1 day after infection; for % control Plasmospora viticola 1DAI / % control Plasmospora viticola 7DBI / % control Plasmospora viticola 1DB1: grape plants; for % control Plasmospora viticola 7DBI: 7 days before infection; for % control Plasmospora viticola 1DB1: 1 day before infection
From the text: Treatments occurred at either 1 day before infection (“1 DBI”), 7 days before infection (“7 DBI”) or 1 day after infection (“1 DAI”).

[3] = tested on: Phytophthora capsici; experiment: In vitro growth on cervinomycin-amended growth media; assay type: cell-based
[4] = tested on: Pseudoperonospora cubensis; experiment: Field and greenhouse trials (cucumber, squash); assay type: in vivo; details: P. cubensis
[5] = tested on: Cochliobolus miyabeanus; experiment: In vitro growth on cervinomycin-amended growth media; assay type: cell-based
[6] = tested on: Zymoseptoria tritici; experiment: Host plant efficacy assay (wheat); assay type: in vivo
[7] = tested on: Phytophthora infestans; assay type: in vivo
[8] = tested on: Rhynchosporium secalis; experiment: In vitro growth on cervinomycin-amended growth media; assay type: cell-based
[9] = tested on: Cladosporium carpophilum; experiment: as above; assay type: cell-based
[10] = tested on: Pyrenophora teres; experiment: Host plant efficacy assay (barley); assay type: in vivo
[11] = tested on: Erysiphe diffusa; experiment: Host plant efficacy assay (soybean); assay type: in vivo
[12] = tested on: Fusarium graminearum; assay type: cell-based
[13] = tested on: Alternaria solani; experiment: Host plant efficacy assay (tomato); assay type: in vivo
[14] = tested on: Pseudoperonospora cubensis; experiment: Host plant efficacy assay (cucumber); assay type: in vivo
[15] = tested on: Podosphaera xanthii; experiment: Host plant efficacy assay (cucumber); assay type: in vivo
[16] = tested on: Magnaporthe oryzae; assay type: in vivo
[17] = tested on: Phakopsora pachyrhizi; experiment: Host plant efficacy assay (soybean); assay type: in vivo
[18] = tested on: Puccinia triticina; experiment: Host plant efficacy assay (wheat); assay type: in vivo
[19] = tested on: Ustilago maydis; experiment: In vitro growth on cervinomycin-amended growth media; assay type: cell-based
[20] = tested on: Sclerotinia sclerotiorum; experiment: Host plant efficacy assay (common bean); assay type: in vivo
[21] = tested on: Botrytis cinerea; experiment: In vitro growth on cervinomycin-amended growth media; assay type: cell-based
[22] = tested on: Pythium ultimum; experiment: as above; assay type: cell-based
[23] = 500 ppm A2, untreated severity 34
[24] = 1000 ppm A2, untreated severity 34
[25] = 1500 ppm A2, untreated severity 34

COc1cc2oc3c(c(=O)c2cc1OC)C(=O)c1c(ccc2cc4c(c(O)c12)C(=O)N1CCOC1(C)C4)C3=O (stereo not shown) [Cervinomycin A2, cervinomycin A2]
% Control Zymoseptoria tritici ([1]; 0.004 ppm in growth media): 1% | % Control Zymoseptoria tritici ([1]; 0.016 ppm in growth media): 2% | % Control Zymoseptoria tritici ([1]; 0.063 ppm in growth media): 6% | % Control Zymoseptoria tritici ([1]; 0.25 ppm in growth media): 62% | % Control Zymoseptoria tritici ([1]; 1 ppm in growth media): 100% | control of P. viticiola (summary of Table 1) ([2]; 13-800 ppm): significant control | % control Plasmospora viticola 1DAI ([2]; 13 ppm): 0% | % control Plasmospora viticola 7DBI ([2]; 13 ppm): 61% | % control Plasmospora viticola 1DB1 ([2]; 50 ppm): 100% | % control Plasmospora viticola 7DBI ([2]; 50 ppm): 91% | % control Plasmospora viticola 1DAI ([2]; 200 ppm): 0% | % control Plasmospora viticola 1DB1 ([2]; 200 ppm): 100% | % control Plasmospora viticola 1DAI ([2]; 800 ppm): 5% | % control Plasmospora viticola 1DB1 ([2]; 800 ppm): 100% | % control Plasmospora viticola 7DBI ([2]; 800 ppm): 100% | % Control Phytophthora capsici ([3]; 0.004 ppm in growth media): 4% | % Control Phytophthora capsici ([3]; 0.016 ppm in growth media): 75% | % Control Phytophthora capsici ([3]; 0.063 ppm in growth media): 90% | % Control Phytophthora capsici ([3]; 0.25 ppm in growth media): 99% | % Control Phytophthora capsici ([3]; 1 ppm in growth media): 100% | % Control [4, 23]: 27% | Disease Severity [4, 23]: 25% | % Control [4, 24]: 22% | Disease Severity [4, 24]: 26% | % Control [4, 25]: 44% | Disease Severity [4, 25]: 19% | % Control Cochliobolus miyabeanus ([5]; 0.004 ppm in growth media): 0% | % Control Cochliobolus miyabeanus ([5]; 0.016 ppm in growth media): 20% | % Control Cochliobolus miyabeanus ([5]; 0.063 ppm in growth media): 49% | % Control Cochliobolus miyabeanus ([5]; 0.25 ppm in growth media): 73% | % Control Cochliobolus miyabeanus ([5]; 1 ppm in growth media): 87% | % control Zymoseptoria tritici Wheat 3DAI ([6]; 11.3 ppm): 0 (0 (about 0%)) | % control Zymoseptoria tritici Wheat 4DBI ([6]; 11.3 ppm): 0 (0 (about 0%)) | % control Zymoseptoria tritici Wheat 3DAI ([6]; 45 ppm): 0 (0 (about 0%)) | % control Zymoseptoria tritici Wheat 4DBI ([6]; 45 ppm): 0 (0 (about 0%)) | % control Zymoseptoria tritici Wheat 3DAI ([6]; 180 ppm): 0 (0 (about 0%)) | % control Zymoseptoria tritici Wheat 4DBI ([6]; 180 ppm): 0 (0 (about 0%)) | % control Phytophthora infestans Tomato 1DBI ([7]; 11.3 ppm): 0 (0 (about 0%)) | % control Phytophthora infestans Tomato 1DBI ([7]; 45 ppm): 0 (0 (about 0%)) | % control Phytophthora infestans Tomato 1DBI ([7]; 180 ppm): 3 (3 (about 70%)) | % Control Rhynchosporium secalis ([8]; 0.004 ppm in growth media): 21% | % Control Rhynchosporium secalis ([8]; 0.016 ppm in growth media): 71% | % Control Rhynchosporium secalis ([8]; 0.063 ppm in growth media): 98% | % Control Rhynchosporium secalis ([8]; 0.25 ppm in growth media): 99% | % Control Rhynchosporium secalis ([8]; 1 ppm in growth media): 100% | % Control Cladosporium carpophilum ([9]; 0.004 ppm in growth media): 0% | % Control Cladosporium carpophilum ([9]; 0.016 ppm in growth media): 0% | % Control Cladosporium carpophilum ([9]; 0.063 ppm in growth media): 46% | % Control Cladosporium carpophilum ([9]; 0.25 ppm in growth media): 99% | % Control Cladosporium carpophilum ([9]; 1 ppm in growth media): 99% | % control Pyrenophora teres Barley 1DBI ([10]; 11.3 ppm): 0 (0 (about 0%)) | % control Pyrenophora teres Barley 1DBI ([10]; 45 ppm): 0 (0 (about 0%)) | % control Pyrenophora teres Barley 1DBI ([10]; 180 ppm): 0 (0 (about 0%)) | % control Erysiphe diffusa Soybean 2DAI ([11]; 11.3 ppm): 0 (0 (about 0%)) | % control Erysiphe diffusa Soybean 2DAI ([11]; 45 ppm): 0 (0 (about 0%)) | % control Erysiphe diffusa Soybean 2DAI ([11]; 180 ppm): 0 (0 (about 0%)) | % Control Fusarium graminearum ([12]; 0.004 ppm in growth media): 8% | % Control Fusarium graminearum ([12]; 0.016 ppm in growth media): 4% | % Control Fusarium graminearum ([12]; 0.063 ppm in growth media): 9% | % Control Fusarium graminearum ([12]; 0.25 ppm in growth media): 0% | % Control Fusarium graminearum ([12]; 1 ppm in growth media): 14% | % control Alternaria solani Tomato 1DBI ([13]; 11.3 ppm): 0 (0 (about 0%)) | % control Alternaria solani Tomato 1DBI ([13]; 45 ppm): 0 (0 (about 0%)) | % control Alternaria solani Tomato 1DBI ([13]; 180 ppm): 0 (0 (about 0%)) | % control Pseudoperonospora cubensis Cucumber 1DBI ([14]; 11.3 ppm): 0 (0 (about 0%)) | % control Pseudoperonospora cubensis Cucumber 1DBI ([14]; 45 ppm): 0 (0 (about 0%)) | % control Pseudoperonospora cubensis Cucumber 1DBI ([14]; 180 ppm): 3 (3 (about 70%)) | % control Podosphaera xanthii Cucumber 1DBI ([15]; 11.3 ppm): 0 (0 (about 0%)) | % control Podosphaera xanthii Cucumber 1DBI ([15]; 45 ppm): 0 (0 (about 0%)) | % control Podosphaera xanthii Cucumber 1DBI ([15]; 180 ppm): 0 (0 (about 0%)) | % control Magnaporthe oryzae Rice 1DBI ([16]; 11.3 ppm): 0 (0 (about 0%)) | % control Magnaporthe oryzae Rice 1DBI ([16]; 45 ppm): 0 (0 (about 0%)) | % control Magnaporthe oryzae Rice 1DBI ([16]; 180 ppm): 0 (0 (about 0%)) | % control Phakopsora pachyrhizi Soybean 3DAI ([17]; 11.3 ppm): 0 (0 (about 0%)) | % control Phakopsora pachyrhizi Soybean 4DBI ([17]; 11.3 ppm): 0 (0 (about 0%)) | % control Phakopsora pachyrhizi Soybean 3DAI ([17]; 45 ppm): 0 (0 (about 0%)) | % control Phakopsora pachyrhizi Soybean 4DBI ([17]; 45 ppm): 0 (0 (about 0%)) | % control Phakopsora pachyrhizi Soybean 3DAI ([17]; 180 ppm): 0 (0 (about 0%)) | % control Phakopsora pachyrhizi Soybean 4DBI ([17]; 180 ppm): 2 (2 (about 50%)) | % control Puccinia triticina Wheat 6DBI ([18]; 11.3 ppm): 0 (0 (about 0%)) | % control Puccinia triticina Wheat 6DBI ([18]; 45 ppm): 0 (0 (about 0%)) | % control Puccinia triticina Wheat 6DBI ([18]; 180 ppm): 0 (0 (about 0%)) | % Control Ustilago maydis ([19]; 0.004 ppm in growth media): 6% | % Control Ustilago maydis ([19]; 0.016 ppm in growth media): 12% | % Control Ustilago maydis ([19]; 0.063 ppm in growth media): 90% | % Control Ustilago maydis ([19]; 0.25 ppm in growth media): 100% | % Control Ustilago maydis ([19]; 1 ppm in growth media): 100% | % control Sclerotinia sclerotiorum Common bean 1DBI ([20]; 11.3 ppm): 0 (0 (about 0%)) | % control Sclerotinia sclerotiorum Common bean 1DBI ([20]; 45 ppm): 0 (0 (about 0%)) | % control Sclerotinia sclerotiorum Common bean 1DBI ([20]; 180 ppm): 0 (0 (about 0%)) | % Control Botrytis cinerea ([21]; 0.004 ppm in growth media): 3% | % Control Botrytis cinerea ([21]; 0.016 ppm in growth media): 2% | % Control Botrytis cinerea ([21]; 0.063 ppm in growth media): 70% | % Control Botrytis cinerea ([21]; 0.25 ppm in growth media): 100% | % Control Botrytis cinerea ([21]; 1 ppm in growth media): 100% | % Control Pythium ultimum ([22]; 0.004 ppm in growth media): 0% | % Control Pythium ultimum ([22]; 0.016 ppm in growth media): 13% | % Control Pythium ultimum ([22]; 0.063 ppm in growth media): 99% | % Control Pythium ultimum ([22]; 0.25 ppm in growth media): 96% | % Control Pythium ultimum ([22]; 1 ppm in growth media): 99%
